Results from article PMC3372685 (Biochemical Pharmacology, 2012).
Read-outs that look alike come from different tables or passages of the source.

Key:
zebrafish [1] = settings: cited from earlier work
zebrafish α7 nAChR [2] = target: T1, zebrafish α7 nAChR (Danio rerio, UniProt Q800C7); assay: Agonist-evoked responses, two-electrode voltage clamp in Xenopus oocytes; assay type: cell-based; settings: for Emax: read-out: Imax; for Agonist type compared to ACh: α7; for Activation of fish α7 nAChR: prototypical α7-selective agonists
[3] = target: T2, zebrafish muscle α1β1bεδ nAChR (Danio rerio, UniProt A2BG85+G1FMP8+Q75XT1+Q98880); assay: cell-based; settings: read-out: Imax
zebrafish [4] = settings: previous work; cited from earlier work
zebrafish α4β2 nAChR [5] = target: T3, zebrafish α4β2 nAChR (Danio rerio, UniProt E7F4S7+Q0PJT8); assay: Agonist-evoked responses, two-electrode voltage clamp in Xenopus oocytes; assay type: cell-based; settings: for Emax: read-out: Imax; for Activation of α4β2 receptors by probe concentration: 30 µM 4OH-GTS-21 and tropane, 300 µM choline
zebrafish α3β4 nAChR [6] = target: T4, zebrafish α3β4 nAChR (Danio rerio, UniProt A0A0R4ISQ3+A0A8M1QHJ5); assay: as above; assay type: cell-based; settings: for Emax: read-out: Imax; for Agonist type compared to ACh: α3β4
zebrafish [7] = settings: cited from earlier work; remark: listed apart in the source
zebrafish [8] = settings: cited from earlier work; remark: listed apart in the source
[9] = target: T2, zebrafish muscle α1β1bεδ nAChR; settings: for EC50: peak current amplitude
[10] = system: zebrafish heteromeric nAChR subtypes (α3β4, α1β1bεδ, α2β2, α4β2); assay type: cell-based, zebrafish (Danio rerio); settings: co-application, 30 µM 4OH-GTS-21 and tropane, 300 µM choline
human α7 nAChR = settings: read-out: EC50 for human α7; used as probe concentration; cited from earlier work
[11] = target: T5, zebrafish α3β4F106Y nAChR (Danio rerio, UniProt A0A0R4ISQ3+A0A8M1QHJ5, F140Y); assay: cell-based
zebrafish [12] = settings: given 5 minutes before the task (not if 40 minutes prior); cited from earlier work
[13] = target: T2, zebrafish muscle α1β1bεδ nAChR; settings: for IC50: α1β1bεδ, co-application with 30 µM ACh
zebrafish α7 nAChR [14] = target: T1, zebrafish α7 nAChR; settings: α7, data not shown
rat α3β4 nAChR = settings: rat α3β4, co-application of 100 µM ACh with 3 µM mecamylamine; cited from earlier work
zebrafish α7 nAChR [15] = target: T1, zebrafish α7 nAChR; assay: cell-based
[16] = system: human and zebrafish α3β4 and α4β2 nAChR; assay type: cell-based; settings: α3β4 and α4β2, repeated application protocol, low concentration of mecamylamine
zebrafish α2β2 nAChR [17] = target: T6, zebrafish α2β2 nAChR (Danio rerio, UniProt A0ACM8Q9T8+E7F4S7); settings: α2β2, ACh control after normal washout
zebrafish α3β4 nAChR [18] = target: T4, zebrafish α3β4 nAChR; assay: Inhibition of ACh-evoked responses by co-applied mecamylamine in Xenopus oocytes; assay type: cell-based
zebrafish α2β2 nAChR [19] = target: T6, zebrafish α2β2 nAChR; assay: cell-based
zebrafish α4β2 nAChR [20] = target: T3, zebrafish α4β2 nAChR; settings: α4β2, ACh control after normal washout
[21] = target: T5, zebrafish α3β4F106Y nAChR
zebrafish α2β2 nAChR [22] = target: T6, zebrafish α2β2 nAChR; assay: cell-based; remark: listed apart in the source

In the case of CN1CCC[C@H]1c1cccnc1 [nicotine], the Dihydroxyphenylacetic acid levels (zebrafish [1]) is listed as “increases dihydroxyphenylacetic acid levels”, the EC50 (zebrafish α7 nAChR [2]) is listed as 27 ± 6 µM and the Emax (zebrafish α7 nAChR [2]) is listed as 75 ± 4%. For the same compound, the “Agonist type compared to ACh” value (zebrafish α7 nAChR [2]) was “full agonist”, the Emax [3] was 13 ± 3% and the Swimming activity (zebrafish [4]) was “increases swimming activity”. The Emax (zebrafish α4β2 nAChR [5]) was 70 ± 10%, the “Agonist type compared to ACh” value (zebrafish α4β2 nAChR [5]; α4β2) was “partial agonist” and the EC50 (zebrafish α3β4 nAChR [6]) was 13 ± 6 µM. For the same compound, the Emax (zebrafish α3β4 nAChR [6]) was 17 ± 2%, the “Agonist type compared to ACh” value (zebrafish α3β4 nAChR [6]) was “partial agonist” and the “Performance in delayed spatial alternation task” value (zebrafish [7]; high doses) was “impaired”. For the same compound, the “Performance in delayed spatial alternation task” value (zebrafish [7]; low doses (100 mg/l in the water)) was “improved performance”, the “Effect in fish model of anxiety” value (zebrafish [8]; 100 mg/l) was “anxiolytic” and the “Agonist type compared to ACh” value [9] was “partial agonist”. The EC50 [9] was 140 ± 50 µM.
For CN1[C@@H]2CCC[C@H]1CC2 [tropane], the “Inhibition of ACh-evoked responses of heteromeric nAChR subtypes” value (from here on “Inhibition … of heteromeric nAChR subtypes”) [10] was “effective at inhibiting the neuronal heteromeric receptor subtypes”, the “Activation of fish α7 nAChR” value (zebrafish α7 nAChR [2]) was “activate” and the “Activation of α4β2 receptors by probe concentration” value (shortened to “Activation of α4β2 receptors”) (zebrafish α4β2 nAChR [5]) was “evoked significant responses”.
In the case of C[N+](C)(C)CCO [choline], the “Inhibition … of heteromeric nAChR subtypes” value [10] is reported as “relatively ineffective”, the “Activation of fish α7 nAChR” value (zebrafish α7 nAChR [2]) is reported as “activate” and the “Activation of α4β2 receptors” value (zebrafish α4β2 nAChR [5]) is reported as “evoked significant responses”. For the same compound, the EC50 (human α7 nAChR) was 300 µM.
With COc1cc(O)ccc1/C=C1\CCCN=C1c1cccnc1 [4OH-GTS-21, 3-(4-hydroxy, 2-methoxybenzylidene)anabaseine] the “Inhibition … of heteromeric nAChR subtypes” value [10] was “inhibited all of the heteromeric receptors”, the “Activation of fish α7 nAChR” value (zebrafish α7 nAChR [2]) was “activate” and the “Activation of α4β2 receptors” value (zebrafish α4β2 nAChR [5]) was “evoked significant responses”.
For CCN1C[C@]2(COC(=O)c3ccccc3N3C(=O)C[C@H](C)C3=O)CC[C@H](OC)[C@@]34[C@@H]5C[C@H]6[C@H](OC)[C@@H]5[C@](O)(C[C@@H]6OC)[C@@](O)([C@@H](OC)[C@H]23)[C@@H]14 [MLA, methyllycaconitine], the “Effect on nicotine-induced increase in swimming activity” value (zebrafish [4]) is listed as “blocked” and the “Effect on anxiolytic effects of nicotine” value (zebrafish [8]) is listed as “blocked”.
Work on CC(=O)OCC[N+](C)(C)C [ACh, acetylcholine] yielded an EC50 (zebrafish α7 nAChR [2]) of 39 ± 3 µM, an EC50 [11] of 134 ± 5 µM and an EC50 (zebrafish α3β4 nAChR [6]) of 73 ± 3 µM.
In the case of CO[C@H]1CC=C2CCN3CCC4=C(CC(=O)OC4)[C@]23C1 [DHβE, dihydro-beta-erythroidine], the “Effect on nicotine-induced increase in swimming activity” value (zebrafish [4]) is given as “blocked” and the “Effect on anxiolytic effects of nicotine” value (zebrafish [8]) is given as “blocked”.
In the case of CNC1(C)C2CCC(C2)C1(C)C (stereo not shown) [mecamylamine], the “Effect on nicotine-induced improvement in spatial learning task” value (zebrafish [12]) is given as “blocked this nicotine-induced improvement”, the “Effect on nicotine-induced increase of dihydroxyphenylacetic acid” value (zebrafish [1]) is given as “blocked” and the Reversibility of inhibition ([13]; muscle-type receptors) is given as “readily reversible”. For the same compound, the IC50 ([13]; read-out: Net charge IC50) was 0.6 ± 0.07 µM, the IC50 ([13]; read-out: Peak current IC50) was 1.8 ± 0.21 µM and the Reversibility of inhibition (zebrafish α7 nAChR [14]) was “readily reversible”. For the same compound, the “Residual inhibition of ACh control responses following washout” value (rat α3β4 nAChR) was 60%, the IC50 (zebrafish α7 nAChR [15]; Net charge IC50, α7, co-application with 60 µM ACh) was 13 ± 3 µM and the IC50 (zebrafish α7 nAChR [15]; Peak current IC50, α7, co-application with 60 µM ACh) was 28 ± 11 µM. The “Inhibition of fish versus human receptor subtypes” value [16] was “significantly greater (p < 0.01)”, the “Mecamylamine concentration giving significant (>25%) residual inhibition” value (zebrafish α2β2 nAChR [17]) was at least 300 nM and the IC50 (zebrafish α3β4 nAChR [18]; Net charge IC50, α3β4, co-application with 100 µM ACh) was 0.05 ± 0.01 µM. The IC50 (zebrafish α3β4 nAChR [18]; Peak current IC50, α3β4, co-application with 100 µM ACh) was 0.6 ± 0.1 µM, the Reversibility of inhibition (zebrafish α3β4 nAChR [18]; α3β4, 3 µM mecamylamine) was “rapidly reversible” and the “Effect on anxiolytic effect of nicotine” value (zebrafish [8]; 200 mg/l mecamylamine) was “blocked”. For the same compound, the IC50 (zebrafish α2β2 nAChR [19]; Net charge IC50, α2β2, co-application with 30 µM ACh) was 3.5 ± 1.3 µM, the IC50 (zebrafish α2β2 nAChR [19]; Peak current IC50, α2β2, co-application with 30 µM ACh) was 3 ± 0.7 µM and the “Mecamylamine concentration giving significant (>25%) residual inhibition” value (zebrafish α4β2 nAChR [20]) was at least 30 nM.
For O=c1cccc2n1C[C@@H]1CNC[C@H]2C1 [cytisine], the “Relative amplitude of responses versus wild-type fish α3β4” value ([21]; 100 µM cytisine, relative to 100 µM ACh control responses) was “significantly larger”, the “Effect of the F106Y mutation on efficacy” value ([21]; expressed relative to respective ACh maximums) was “no significant effect” and the EC50 (zebrafish α7 nAChR [2]) was 15 ± 3 µM. For the same compound, the Emax (zebrafish α7 nAChR [2]) was 116 ± 6%, the “Agonist type compared to ACh” value (zebrafish α7 nAChR [2]) was “full agonist” and the Emax [3] was 13 ± 0.3%. For the same compound, the Emax (zebrafish α4β2 nAChR [5]) was 26 ± 1%, the EC50 (zebrafish α3β4 nAChR [6]) was 11 ± 1 µM and the Emax (zebrafish α3β4 nAChR [6]) was 12 ± 0.2%. The “Agonist type compared to ACh” value (zebrafish α3β4 nAChR [6]) was “relatively weak partial agonist”, the EC50 [9] was 460 ± 20 µM and the EC50 (zebrafish α2β2 nAChR [22]) was 4.1 ± 0.3 µM. For the same compound, the Emax (zebrafish α2β2 nAChR [22]; read-out: Imax) was 9 ± 1%.
